{"source": "patent US8507445B2", "about": "“Compositions and methods of use of targeting peptides for diagnosis and therapy of human cancer” (Board of Regents, The University of Texas System, priority 2002, dated 2013)", "key": {"[1]": {"system": "IgGs isolated from the ascites of ovarian cancer patients", "test": "Biopanning of CX7C phage library on IgGs from ovarian cancer ascites", "type": "binding, human", "procedure": "To identify peptide epitopes specific for the anti-tumor immune response in ovarian cancer, a two-step screening procedure was followed (FIG. 34). The peptide library was initially pre-cleared on IVIg (intravenous immunoglobulins) to remove non-specific peptides. The pre-cleared peptide phage library was then incubated with IgGs isolated from the ascites of ovarian cancer patients. Phage bound to the ovarian cancer IgGs were recovered, amplified, and precipitated for subsequent rounds of biopanning. Following enrichment of a phage population that bound to ovarian cancer patient IgGs, individual phage clones were picked for sequence analysis to evaluate enrichment of the most consistently binding peptide sequences. Phage display biopanning was performed as described above.\nOnce the selection rounds were completed as determined by enrichment of phage capable of binding cancer patient IgGs over control at least 3 fold, sequencing and evaluation of the DNA phage insert were undertaken. To sequence the FUSE5 ssDNA directly, phage ssDNA was prepared using the StrataClean™ resin (Stratagene). StrataClean bead slurry was placed in a microcentrifuge tube containing phage. The mixture was vortexed strongly for 30 seconds and then incubated at room temperature for one minute. The tubes were centrifuged at 2,000×g for 1 minute. […]"}, "[2]": {"system": "antibodies isolated from the ascites of an ovarian cancer patient", "test": "Competition of ascites antibody binding to immobilized GST fusion protein", "set-up": "species or system human", "procedure": "Inhibition studies were performed in a similar manner as the binding assays described above with the exception that either GST fusion protein or synthetic peptide corresponding to the phage clone were added to the experiment. Where the peptide is mediating the interaction with the immunoglobulins then an inhibition of phage binding should be observed in a dose dependent manner versus the synthetic peptide. GST alone and a control peptide containing unrelated amino acids were tested at identical concentrations.\nPeptide sequences of interest were expressed as GST fusion proteins (described above) and used to screen banked ascites and serum to determine the role of the humoral response against these markers. The purified GST-fusion proteins were used to coat a 96-well plate at 100 ng/well at room temperature (RT) or at 4° C. overnight. Following coating, the wells were emptied, rinsed, and non-specific sites were blocked with 200 μl 3% BSA/PBS at RT for 1-2 hours. Cancer patient ascites and/or sera were applied to each coated and blocked well at 1:100 dilution and then incubated at RT for 1 hour. […] Signals were detected in the presence of p-nitrophenyl phosphate by measuring OD405 at specific intervals to follow the course of color development. […]"}, "DU145 xenografts": {"system": "DU145 xenografts", "test": "Phage localization by anti-phage staining of tissues", "type": "in vivo, nude mice", "conditions": "24 hour circulation", "procedure": "To determine the specificity of the prostate tumor targeting peptides, 10^9 phage carrying the targeting peptide sequences […] (SEQ ID NO:83) and […] (SEQ ID NO:84) were injected into nude mice bearing DU145 xenografts. After 24 hour circulation, tissue samples were obtained from tumor and control organs (kidney, brain, lung and spleen). Tissue samples were washed immediately in DMAM and fixed in 10% formalin for 48 hours at room temperature. Thin sections were stained for phage using anti-phage antibody (1:500 dilution) and detected using the DAKO LSAB+ system. […] This may be due to the tendency of spleen tissue to trap phage and other foreign particles in general as part of the reticuloendothelial system."}, "[3]": {"system": "MDA-MB-435 breast carcinoma", "test": "Phage localization, separate study", "conditions": "in vivo"}, "HSP90α": {"molecular_target": "T1, HSP90α (Homo sapiens, UniProt P07900)", "T1 construct": "from tissue; host or cells: homogenate pellet of DU145 xenograft tumor grown in nude mice", "test": "Receptor purification on biotinylated peptide beads", "type": "binding", "conditions": "MALDI analysis of excised bands", "procedure": "The prostate homing receptor for the B2 clone ([…] SEQ ID NO:83) was identified. Nude mice bearing DU145 xenografts were prepared and tissue samples from tumor, kidney and liver were removed. The tissue samples were immediately washed with PBS and three parts of homogenization buffer (PBS, 250 mM sucrose, 1 mM EDTA, protease inhibitors) was added to one part of tissue sample (about 4 ml). The tissue with homogenized with an electric grinder, then further homogenized with a dounce homogenizer. After sonication for 1 min on ice, the homogenate was centrifuged at 8000×g for 5 min. The supernatant was removed and the pellet was analyzed for receptor content.\nThe […] (SEQ ID NO:83) peptide was biotinylated and coupled to NeutrAvidin beads (Molecular Probes, Eugene, Oreg.) using standard methods. About 500 μg of biotinylated peptide was incubated with 1 ml of NeutrAvidin beads in binding buffer (0.5 M NaCl in PBS) overnight at 4° C. in a 2 ml column. The column was agitated using a rotator. Uncoupled peptides were removed and the beads washed three times with binding buffer and protease inhibitors. […]\nThe beads were washed four times with wash buffer (0.1% Triton X-100 in PBS with protease inhibitors) and the bound material eluted with 8 M guanidine HCl. Eluted proteins were analyzed on a 4-20% SDS-PAGE denaturing gel. […]"}, "DU145 tumors": {"system": "DU145 tumors", "test": "Competition of phage tumor localization by synthetic peptide", "type": "in vivo, nude mice", "conditions": "300 μg synthetic peptide co-injected with phage", "procedure": "Competition studies with the […] (SEQ ID NO:83) peptide were performed to determine whether it could inhibit localization of phage bearing the same targeting sequence to DU145 tumors. Nude mice bearing the prostate tumor xenograft were simultaneously injected with 300 μg of synthetic […] (SEQ ID NO:83) peptide and 10^9 phage bearing the same targeting peptide sequence. A control tumor-bearing mouse was co-injected with fd insertless phage plus synthetic peptide. After 24 hours of circulation, tumor tissue samples were removed, washed, fixed, sectioned and stained as disclosed above. Co-administration of synthetic peptide with the same targeting sequence inhibited the ability of […] (SEQ ID NO:83)-phage to localize to prostate carcinoma tissue (not shown). No staining of prostate carcinoma with control fd-tet phage was observed (not shown)"}}}
{"sequence": "CVPELGHEC", "values": [{"measurement": "share of the phage clones sequenced", "setting": "[1]", "result": 86, "unit": "%"}, {"measurement": "inhibition of antibody binding to immobilized GST-CVPELGHEC", "setting": "[2]", "result": "competitively inhibited in a dose-dependent fashion"}]}
{"sequence": "YRCTLNSPFFWEDMTHECHA [listing 1 of 2 here]", "values": [{"measurement": "anti-phage staining of control kidney, brain or lung", "setting": "DU145 xenografts", "result": "No staining was observed"}, {"measurement": "anti-phage staining of normal spleen", "setting": "DU145 xenografts", "result": "low level of anti-phage staining"}, {"measurement": "anti-phage staining of tumor", "setting": "DU145 xenografts", "result": "very heavy staining"}, {"measurement": "phage localization", "setting": "[3]", "result": "no apparent localization"}]}
{"sequence": "YRCTLNSPFFWEDMTHECHA [listing 2 of 2 here]", "values": [{"measurement": "receptor identified", "setting": "HSP90α", "result": "HSP90α"}, {"measurement": "inhibition of phage localization to prostate carcinoma", "setting": "DU145 tumors", "result": "inhibited"}]}
